Common to all, as to assay type: cell-based
For assay [1], the target named is T1, human thiamine transporter 2 (hTHTR-2) (Homo sapiens, UniProt Q9BZV2).
T1 sequence (Q9BZV2 1-496): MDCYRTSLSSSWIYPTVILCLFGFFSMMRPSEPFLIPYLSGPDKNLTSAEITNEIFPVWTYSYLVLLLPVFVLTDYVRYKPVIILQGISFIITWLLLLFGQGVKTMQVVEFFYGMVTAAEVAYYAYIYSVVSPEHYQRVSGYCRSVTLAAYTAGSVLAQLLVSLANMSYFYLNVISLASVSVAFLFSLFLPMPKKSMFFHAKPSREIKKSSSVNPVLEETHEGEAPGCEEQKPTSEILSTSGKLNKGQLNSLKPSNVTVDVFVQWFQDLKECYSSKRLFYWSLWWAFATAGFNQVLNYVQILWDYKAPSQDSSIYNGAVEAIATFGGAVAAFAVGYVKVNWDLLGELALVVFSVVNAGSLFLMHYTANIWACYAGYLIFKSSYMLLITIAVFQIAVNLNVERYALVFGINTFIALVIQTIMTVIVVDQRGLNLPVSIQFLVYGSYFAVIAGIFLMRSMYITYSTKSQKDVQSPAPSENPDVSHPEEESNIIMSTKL
Briefly: [3H]MPP+ uptake in HEK-hTHTR-2 cells with and without fedratinib.

For assay [2], the target named is T1, human thiamine transporter 2 (hTHTR-2). Nature of the assay: saturable […]metformin uptake.
Assay [3] has the same target. Briefly: inhibition of [3H]thiamine uptake in HEK-hTHTR-2 cells.
For assay [4] the target is unchanged. Nature of the assay: inhibition of [3H]thiamine and […]metformin uptake in HEK-hTHTR-2 cells at […].
The target is the same in assay [5]. Briefly: saturable [3H]thiamine uptake.

Each structure is given as a SMILES string.

As for `C[n+]1ccc(-c2ccccc2)cc1` [MPP+, 1-methyl-4-phenylpyridinium], the “[3H]MPP+ uptake in HEK-hTHTR-2 cells with and without fedratinib” value in assay [1] is 1-methyl-4-phenylpyridinium (MPP^+) and the histamine H2-receptor antagonist famotidine were substrates of hTHTR-2. The IC50 is the concentration at which inhibition is half-maximal. Higher therefore signals lower potency. `CN(C)C(=N)N=C(N)N` [metformin, 1,1-dimethylbiguanide] registered an IC50 in assay [2] of 680 ± 140 µM.

As to `[H]/N=C(/N)N/C(=N/[H])NCCc1ccccc1` [phenformin], in assay [3], the IC50 came out at 244 ± 28.4 µM.

As to `Cc1ncc(C[n+]2cccc(CCO)c2C)c(N)n1` [pyrithiamine], the “inhibition of [3H]thiamine and [14C]metformin uptake in HEK-hTHTR-2 cells at 200” value in assay [4] was “antithiamine analogues (amprolium and pyrithiamine) and prescription drugs (chloroquine, verapamil, and famotidine) were shown to be inhibitors”. As for `Cc1ncc(C[n+]2csc(CCO)c2C)c(N)n1` [thiamine], in assay [5], inhibition was half-maximal at 1.03 ± 0.12 µM (IC50).

Source of the values: publication PMC4800991 (Molecular pharmaceutics, 2015).
